Tested on: human dermal fibroblasts
Test: UV-A radiation-induced mtDNA common deletion in human dermal fibroblasts (nested PCR)
Type: cell-based
Settings: for Prevalence of mtDNA deletion relative to untreated cells: representative experiment; for Protection of fibroblasts against the UV-A radiation-induced generation of the common deletion (in words): overall finding of 3 experiments
Excerpt: Sunlight (Systems Dr. […]) irradiation device. […] The cells were then harvested by trypsinisation. […] Dermatol. […] (7293-7316); [NT] (13928-13905); [NT] (7901-7920); [NT] (13650-13631); [NT] (219-238); C2, [NT]

[1] = UV-A radiation + 0.25 μM carotenoid, after 1 week
[2] = UV-A radiation + 0.5 μM carotenoid, after 1 week
[3] = UV-A radiation + 1.0 μM carotenoid, after 1 week
[4] = UV-A radiation + 2.0 μM carotenoid, after 1 week
[5] = UV-A radiation + 3.0 μM carotenoid, after 1 week
[6] = all doses tested (0.25-3 μM), after 1 week

Row | SMILES | Prevalence of mtDNA deletion relative to untreated cells [1] | Prevalence of mtDNA deletion relative to untreated cells [2] | Prevalence of mtDNA deletion relative to untreated cells [3] | Prevalence of mtDNA deletion relative to untreated cells [4] | Prevalence of mtDNA deletion relative to untreated cells [5] | Effect on UV-A radiation-induced formation of the common deletion (in words) [6] | Protection of fibroblasts against the UV-A radiation-induced generation of the common deletion (in words) | Prevalence of mtDNA deletion relative to untreated cells (UV-A radiation + 0.1 μM carotenoid, after 2 weeks) | Prevalence of mtDNA deletion relative to untreated cells (UV-A radiation + 0.25 μM carotenoid, after 2 weeks) | Prevalence of mtDNA deletion relative to untreated cells (UV-A radiation + 0.5 μM carotenoid, after 2 weeks) | Prevalence of mtDNA deletion relative to untreated cells (UV-A radiation + 1.0 μM carotenoid, after 2 weeks) | Prevalence of mtDNA deletion relative to untreated cells (UV-A radiation + 2.0 μM carotenoid, after 2 weeks) | Prevalence of mtDNA deletion relative to untreated cells (UV-A radiation + 3.0 μM carotenoid, after 2 weeks) | Effect on UV-A radiation-induced induction of the common deletion (in words) (all concentrations tested, after 2 weeks) | Effect on UV-A radiation-induced formation of the common deletion (in words) (at 0.5, 1 μM and 2 μM, after 1 week)
1 | CC1=C[C@H](O)CC(C)(C)[C@H]1/C=C/C(C)=C/C=C/C(C)=C/C=C/C=C(C)/C=C/C=C(C)/C=C/C1=C(C)C[C@@H](O)CC1(C)C [lutein] | 0.98 | 0.27 | 0.71 | 0.37 | 0.59 | completely prevented | found to protect |  |  |  |  |  |  |  | 
2 | CC1=C(/C=C/C(C)=C/C=C/C(C)=C/C=C/C=C(C)/C=C/C=C(C)/C=C/C2=C(C)C[C@@H](O)CC2(C)C)C(C)(C)CCC1 [β-cryptoxanthin] |  |  |  |  |  |  |  | 0.80 | 0.64 | 0.25 | 0.62 | 0.25 | 1.03 | abrogated | 
3 | CC1=C(/C=C/C(C)=C/C=C/C(C)=C/C=C/C=C(C)/C=C/C=C(C)/C=C/C2=C(C)C[C@@H](O)CC2(C)C)C(C)(C)C[C@H](O)C1 [Zeaxanthin, zeaxanthin, reference compound] |  |  |  |  |  |  | no effect |  |  |  |  |  |  |  | 
4 | CC(C)=CCC/C(C)=C/C=C/C(C)=C/C=C/C(C)=C/C=C/C=C(C)/C=C/C=C(C)/C=C/C=C(\C)CCC=C(C)C [lycopene] | 2.90 | 1.22 | 1.53 | 1.53 | 2.52 | inhibits | consistently found to protect |  |  |  |  |  |  |  | Complete protection

Reference: US20080199413A1, “Novel Use of Organic Compounds” (priority 2005, published 2008)
